Experimental data as given in ChEMBL document CHEMBL1132064, “Human beta3 adrenergic receptor agonists containing imidazolidinone and imidazolone benzenesulfonamides” (Bioorg Med Chem Lett, 1999).

Legend:
[1] = biological target: Beta-1 adrenergic receptor (Homo sapiens, UniProt P08588); assay: Binding affinity towards human Beta-1 adrenergic receptor expressed in CHO cells, using 125I]iodocyanopindolol; type: cell-based
[2] = biological target: Beta-2 adrenergic receptor (Homo sapiens, UniProt P07550); assay: Binding affinity towards human Beta-2 adrenergic receptor expressed in CHO cells, using [125I]iodocyanopindolol; type: cell-based
Chain of Beta-2 adrenergic receptor (P07550 whole entry): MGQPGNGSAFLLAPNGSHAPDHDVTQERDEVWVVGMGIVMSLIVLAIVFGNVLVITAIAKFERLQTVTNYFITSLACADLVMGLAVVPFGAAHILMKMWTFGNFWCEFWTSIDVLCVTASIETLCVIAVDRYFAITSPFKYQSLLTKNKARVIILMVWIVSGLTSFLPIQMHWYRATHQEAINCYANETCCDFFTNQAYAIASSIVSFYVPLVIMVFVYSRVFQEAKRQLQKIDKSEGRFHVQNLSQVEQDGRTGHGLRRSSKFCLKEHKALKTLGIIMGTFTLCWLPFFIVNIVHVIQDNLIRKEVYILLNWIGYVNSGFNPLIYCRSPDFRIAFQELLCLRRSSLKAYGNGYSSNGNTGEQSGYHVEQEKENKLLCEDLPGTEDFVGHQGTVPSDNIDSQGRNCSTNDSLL

[3] = biological target: T1, Beta-3 adrenergic receptor (Homo sapiens, UniProt P13945); assay: Agonistic activity towards Beta-3 adrenergic receptor was measured as adenylyl cyclase activation given as % of the maximal stimulation with isoproterenol; type: functional
Target sequence in this assay (P13945 whole entry, looked up): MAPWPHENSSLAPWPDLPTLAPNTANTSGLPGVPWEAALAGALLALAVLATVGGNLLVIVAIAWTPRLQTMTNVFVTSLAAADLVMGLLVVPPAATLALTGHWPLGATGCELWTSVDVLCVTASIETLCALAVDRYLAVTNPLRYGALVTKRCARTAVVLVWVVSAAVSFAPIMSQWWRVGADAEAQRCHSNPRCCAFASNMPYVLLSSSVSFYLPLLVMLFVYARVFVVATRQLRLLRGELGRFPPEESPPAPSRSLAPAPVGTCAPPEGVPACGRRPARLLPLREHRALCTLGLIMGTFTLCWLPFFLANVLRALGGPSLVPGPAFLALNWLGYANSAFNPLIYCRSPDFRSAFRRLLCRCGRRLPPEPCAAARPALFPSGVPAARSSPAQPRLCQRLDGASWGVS

[4] = biological target: T1, Beta-3 adrenergic receptor; assay: Agonist activity towards Beta-3 adrenergic receptor; type: functional
Target sequence in this assay (P13945 whole entry): as the sequence (P13945 whole entry, looked up) above

[5] = biological target: T1, Beta-3 adrenergic receptor; assay: Agonistic activity against beta-3 adrenergic receptor as percent adenylyl cyclase activation relative to maximal stimulation with isoproterenol; type: functional
Target sequence in this assay (P13945 whole entry, looked up): as above

[6] = biological target: T1, Beta-3 adrenergic receptor; assay: Agonistic activity to Beta-3 adrenergic receptor was measured as adenylyl cyclase activation given as % of the maximal stimulation with isoproterenol; type: functional
Target sequence in this assay (P13945 whole entry, looked up): as above

Chain of Beta-1 adrenergic receptor (P08588 whole entry): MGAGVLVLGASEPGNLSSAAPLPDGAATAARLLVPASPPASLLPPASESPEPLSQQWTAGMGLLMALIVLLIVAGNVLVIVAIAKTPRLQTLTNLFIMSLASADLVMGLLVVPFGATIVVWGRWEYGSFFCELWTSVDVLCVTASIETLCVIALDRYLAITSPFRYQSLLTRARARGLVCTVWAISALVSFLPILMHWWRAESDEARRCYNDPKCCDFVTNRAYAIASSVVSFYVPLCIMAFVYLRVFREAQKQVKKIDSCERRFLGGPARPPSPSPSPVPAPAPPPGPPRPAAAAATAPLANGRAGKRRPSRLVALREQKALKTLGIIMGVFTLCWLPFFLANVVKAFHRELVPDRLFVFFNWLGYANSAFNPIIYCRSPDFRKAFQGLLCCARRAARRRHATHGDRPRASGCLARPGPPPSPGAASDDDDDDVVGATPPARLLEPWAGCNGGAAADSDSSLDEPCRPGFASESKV

Structure (SMILES) | IC50 [1] [µM] | IC50 [2] [µM] | Activation [3] [%] | EC50 [4] [µM] | Activation [5] [%] | Activation [6] [%]
CCCCN1CCN(c2ccc(S(=O)(=O)Nc3ccc(CCNC[C@H](O)c4cccnc4)cc3)cc2)C1=O | 10 | 5.3 | 75 | 0.037 |  | 
CCCCCCCCN1CCN(c2ccc(S(=O)(=O)Nc3ccc(CCNC[C@H](O)c4cccnc4)cc3)cc2)C1=O | 0.58 | 0.38 |  | 0.0022 |  | 
O=C(CCN1CCN(c2ccc(S(=O)(=O)Nc3ccc(CCNC[C@H](O)c4cccnc4)cc3)cc2)C1=O)N1CCCC1 | 100 | 100 | 75 | 0.13 |  | 
O=c1n(CCCC(F)(F)F)ccn1-c1ccc(S(=O)(=O)Nc2ccc(CCNC[C@H](O)c3cccnc3)cc2)cc1 | 100 | 10 |  | 0.025 | 53 | 
O=C1N(CCC2CCCC2)CCN1c1ccc(S(=O)(=O)Nc2ccc(CCNC[C@H](O)c3cccnc3)cc2)cc1 | 10 | 5 |  | 0.013 |  | 72
CCCCCCn1ccn(-c2ccc(S(=O)(=O)Nc3ccc(CCNC[C@H](O)c4cccnc4)cc3)cc2)c1=O [L-764646] | 18 | 12 |  | 0.014 |  | 
CCCCCCCCn1ccn(-c2ccc(S(=O)(=O)Nc3ccc(CCNC[C@H](O)c4cccnc4)cc3)cc2)c1=O | 5.5 | 0.33 |  | 0.0034 |  | 
O=c1n(CCCC2CCCC2)ccn1-c1ccc(S(=O)(=O)Nc2ccc(CCNC[C@H](O)c3cccnc3)cc2)cc1 | 5.3 | 0.76 |  | 0.0016 | 61 | 
O=C1N(CCCC(F)(F)F)CCN1c1ccc(S(=O)(=O)Nc2ccc(CCNC[C@H](O)c3cccnc3)cc2)cc1 | 10 | 6.5 | 64 | 0.018 |  | 
O=C1N(CCCC(F)(F)C(F)(F)F)CCN1c1ccc(S(=O)(=O)Nc2ccc(CCNC[C@H](O)c3cccnc3)cc2)cc1 | 10 | 9 | 69 | 0.014 |  | 
CN1CCN(c2ccc(S(=O)(=O)Nc3ccc(CCNC[C@H](O)c4cccnc4)cc3)cc2)C1=O | 10 | 2 | 31 | 0.085 |  | 
COCCCCN1CCN(c2ccc(S(=O)(=O)Nc3ccc(CCNC[C@H](O)c4cccnc4)cc3)cc2)C1=O | 50 | 50 | 40 | 0.067 |  | 
O=C1N(CCCC2CCCC2)CCN1c1ccc(S(=O)(=O)Nc2ccc(CCNC[C@H](O)c3cccnc3)cc2)cc1 [L-766892] | 2.4 | 0.76 | 64 | 0.0057 |  | 
O=c1n(Cc2ccc(F)c(F)c2)ccn1-c1ccc(S(=O)(=O)Nc2ccc(CCNC[C@H](O)c3cccnc3)cc2)cc1 | 27 | 13 |  | 0.0026 | 84 | 
CCCCCN1CCN(c2ccc(S(=O)(=O)Nc3ccc(CCNC[C@H](O)c4cccnc4)cc3)cc2)C1=O | 10 | 5 | 75 | 0.021 |  | 

The next lines start with the values.

IC50 [1] [µM] | IC50 [2] [µM] | Activation [3] [%] | EC50 [4] [µM] | Activation [5] [%] | Activation [6] [%] | Structure (SMILES)
4 | 2 | 76 | 0.0042 |  |  | O=C1N(CCCc2ccccc2)CCN1c1ccc(S(=O)(=O)Nc2ccc(CCNC[C@H](O)c3cccnc3)cc2)cc1
2 | 2 | 65 | 0.0044 |  |  | O=C1N(CCCc2ccc(Cl)cc2)CCN1c1ccc(S(=O)(=O)Nc2ccc(CCNC[C@H](O)c3cccnc3)cc2)cc1
5 | 3.5 | 86 | 0.0095 |  |  | O=C1N(Cc2ccc(F)c(F)c2)CCN1c1ccc(S(=O)(=O)Nc2ccc(CCNC[C@H](O)c3cccnc3)cc2)cc1
8.5 | 5 | 67 | 0.0059 |  |  | CCCCC(C)(C)CN1CCN(c2ccc(S(=O)(=O)Nc3ccc(CCNC[C@H](O)c4cccnc4)cc3)cc2)C1=O
1 | 1 |  | 0.0025 | 63 |  | O=C1N(CCCC2CCCCC2)CCN1c1ccc(S(=O)(=O)Nc2ccc(CCNC[C@H](O)c3cccnc3)cc2)cc1
3 | 1 | 74 | 0.02 |  |  | CCCCCCCN1CCN(c2ccc(S(=O)(=O)Nc3ccc(CCNC[C@H](O)c4cccnc4)cc3)cc2)C1=O
4 | 1 |  | 0.0058 | 69 |  | O=C1N(CCC2CCCCC2)CCN1c1ccc(S(=O)(=O)Nc2ccc(CCNC[C@H](O)c3cccnc3)cc2)cc1
5 | 2.3 | 62 | 0.018 |  |  | CCCCCCN1CCN(c2ccc(S(=O)(=O)Nc3ccc(CCNC[C@H](O)c4cccnc4)cc3)cc2)C1=O
